According to patent publication US10336697B2, “Spiro[cyclobutane-1,3′-indolin]-2′-one derivatives as bromodomain inhibitors” (Orion Corporation, priority 2015, dated 2019):

Target: Bet BRD4 full length bromo-domain protein (Homo sapiens, UniProt O60885)
Test: Bet bromodomain TR-FRET assay (displacement of acetyl histone peptide)
Format: binding
Conditions: Bet BRD4 full length bromodomain protein, 300 nM acetyl histone peptide substrate, read-out: IC50

| Compound | IC50 [nM] |
| --- | --- |
| CC1CC(Oc2cc(NS(=O)(=O)c3ccc(Cl)cc3F)cc3c2NC(=O)C32CCC2)CC(C)N1 (stereo not shown) [compound 201, 4-Chloro-N-(7′-((2,6-dimethylpiperidin-4-yl)oxy)-2′-oxospiro[cyclobutane-1,3′-indolin]-5′-yl)-2-fluorobenzenesulfonamide] | < 600 |
| O=C1Nc2c(OCC3CNCCO3)cc(NS(=O)(=O)c3ccc(Cl)cc3F)cc2C12CCC2 (stereo not shown) [compound 202, 4-Chloro-2-fluoro-N-(7′-(morpholin-2-ylmethoxy)-2′-oxospiro[cyclobutane-1,3′-indolin]-5′-yl)benzenesulfonamide] | < 600 |
| CNCCOc1cc(NS(=O)(=O)c2ccccc2OC)cc2c1NC(=O)C21CCC1 [compound 204, 2-Methoxy-N-(7′-(2-(methylamino)ethoxy)-2′-oxospiro[cyclobutane-1,3′-indolin]-5′-yl)benzenesulfonamide] | < 600 |
| CCNCCOc1cc(NS(=O)(=O)c2ccccc2OC)cc2c1NC(=O)C21CCC1 [compound 205, N-(7′-(2-(ethylamino)ethoxy)-2′-oxospiro[cyclobutane-1,3′-indolin]-5′-yl)-2-methoxybenzenesulfonamide] | < 600 |
| COc1ccccc1S(=O)(=O)Nc1cc(OCCNC2CC2)c2c(c1)C1(CCC1)C(=O)N2 [compound 206, N-(7′-(2-(cyclopropylamino)ethoxy)-2′-oxospiro[cyclobutane-1,3′-indolin]-5′-yl)-2-methoxybenzenesulfonamide] | < 600 |
| NC1(COc2cc(NS(=O)(=O)c3ccc(Cl)cc3F)cc3c2NC(=O)C32CCC2)CC1 [compound 207, N-(7′-((1-aminocyclopropyl)methoxy)-2′-oxospiro[cyclobutane-1,3′-indolin]-5′-yl)-4-chloro-2-fluorobenzenesulfonamide] | < 600 |
| COc1ccccc1S(=O)(=O)Nc1cc(Oc2cc[nH]c(=O)c2)c2c(c1)C1(CCC1)C(=O)N2 [compound 213, 2-Methoxy-N-(2′-oxo-7′-((2-oxo-1,2-dihydropyridin-4-yl)oxy)spiro[cyclobutane-1,3′-indolin]-5′-yl)benzenesulfonamide] | < 600 |
| COc1ccccc1S(=O)(=O)Nc1cc(OC2CCN(C)CC2)c2c(c1Br)C1(CCC1)C(=O)N2 [compound 216, N-(4′-bromo-7′-((1-methylpiperidin-4-yl)oxy)-2′-oxospiro[cyclobutane-1,3′-indolin]-5′-yl)-2-methoxybenzenesulfonamide] | > 1000 |
| CN1CCC(Oc2cc(NC(=O)/C=C/c3ccccc3)cc3c2NC(=O)C32CCC2)CC1 [compound 219, N-(7′-((1-methylpiperidin-4-yl)oxy)-2′-oxospiro[cyclobutane-1,3′-indolin]-5′-yl)cinnamamide] | < 600 |
| CN1CCC(Oc2cc(NC(=O)c3ccc(Cl)cc3F)cc3c2NC(=O)C32CCC2)CC1 [compound 224, 4-Chloro-2-fluoro-N-(7′-((1-methylpiperidin-4-yl)oxy)-2′-oxospiro[cyclobutane-1,3′-indolin]-5′-yl)benzamide] | > 1000 |
